Measurements reported in US20240351997A1, “NOVEL PARP7 INHIBITOR AND USE THEREOF” (SHANGHAI QILU PHARMACEUTICAL RESEARCH AND DEVELOPMENT …, priority 2021, published 2024).

How the values were obtained:
[1] = biological target: PARP7 (Homo sapiens (Human), UniProt Q7Z3E1); assay: In vitro enzymology experiment of PARP7 (enzymatic inhibition); type: biochemical
Outline: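 Histone-coated plate ADP-ribosylation format: compound preincubated 10 min at room temperature with preincubated (25 °C, 10 min) enzyme mixture; incorporated biotin detected by streptavidin-HRP and QuantaRed fluorescence (Ex550/Em620).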

[2] = In vivo pharmacokinetic assay in mice (intravenous injection and oral administration); conditions: C57BL/6 mice; for AUC / clearance / half-life / Vd / Cmax: male, mouse, plasma; for Vd: read-out: Vss
Source text: (§1) III. In Vivo Pharmacokinetic Assay in Mice and Rats
(§2) The pharmacokinetic behavior of the compound of the present disclosure in plasma after a single intravenous injection and oral administration was studied using male C57BL/6 mice or SD male rats as experimental animals.
(§3) Healthy adult C57BL/6 mice or SD rats (3 mice or rats per group), male, supplied by Shanghai Jihui Laboratory Animal Care Co., Ltd. and Vital River Laboratory Animal Technology Co., Ltd.
(§4) Both the intravenous injection and oral administration groups consisted of 3 mice or rats. The intravenous injection was at a dose of 1 mg/kg and in a volume of 5 mL/kg; the oral administration was at a dose of 5 mg/kg and in a volume of 10 mL/kg. The vehicle for administration was 5% DMSO/5% Kolliphor HS 15/90% Saline.
(§5) 2.3 Experimental Equipment
(§6) The centrifuge was purchased from Eppendorf, and the pipette was purchased from Eppendorf.
(§7) After the animals were administered, 0.02 mL of blood was collected from the vein at 0.0833 (IV), 0.25, 0.5, 1, 2, 4, 8, and 24 hours, respectively, placed in an EDTA-K2 test tube, centrifuged at 4600 rpm for 5 minutes at 4° C. to separate the plasma, and stored at −80° C.
(§8) 1) 10 μL of plasma sample was precipitated by adding 200 μL of acetonitrile, vortexed to mix, and centrifuged for 15 minutes.
(§9) 2) The treated supernatant was diluted with water, and the concentration of the test compound was analyzed by LC/MS/MS.
(§10) • Liquid phase conditions: Shimadzu LC-30AD • Mass spectrometry conditions: AB Sciex API 5500 • Chromatographic column: Phenomenex Kinetex 2.6 μm C18 • Mobile phases: A: 5 mM ammonium acetate aqueous solution (containing 0.05% formic acid); B: acetonitrile (containing 0.1% formic acid); flow rate: 0.5 mL/min
(§11) 3. Experimental Results and Analysis
(§12) Pharmacokinetic parameters were calculated using WinNonlin 8.0, and the pharmacokinetic parameters for intravenous injection and oral administration in mice or rats are shown in Table 2 and Table 3 below: […]

[3] = In vivo pharmacokinetic assay in rats (intravenous injection and oral administration); conditions: SD rats; for AUC / clearance / half-life / Vd / Cmax: male, rat, plasma; for Vd: read-out: Vss
Source text: as §1, §2, §3, §4, §5, §6, §7, §8, §9, §10, §11, §12

Sequence of PARP7 (Q7Z3E1 whole entry): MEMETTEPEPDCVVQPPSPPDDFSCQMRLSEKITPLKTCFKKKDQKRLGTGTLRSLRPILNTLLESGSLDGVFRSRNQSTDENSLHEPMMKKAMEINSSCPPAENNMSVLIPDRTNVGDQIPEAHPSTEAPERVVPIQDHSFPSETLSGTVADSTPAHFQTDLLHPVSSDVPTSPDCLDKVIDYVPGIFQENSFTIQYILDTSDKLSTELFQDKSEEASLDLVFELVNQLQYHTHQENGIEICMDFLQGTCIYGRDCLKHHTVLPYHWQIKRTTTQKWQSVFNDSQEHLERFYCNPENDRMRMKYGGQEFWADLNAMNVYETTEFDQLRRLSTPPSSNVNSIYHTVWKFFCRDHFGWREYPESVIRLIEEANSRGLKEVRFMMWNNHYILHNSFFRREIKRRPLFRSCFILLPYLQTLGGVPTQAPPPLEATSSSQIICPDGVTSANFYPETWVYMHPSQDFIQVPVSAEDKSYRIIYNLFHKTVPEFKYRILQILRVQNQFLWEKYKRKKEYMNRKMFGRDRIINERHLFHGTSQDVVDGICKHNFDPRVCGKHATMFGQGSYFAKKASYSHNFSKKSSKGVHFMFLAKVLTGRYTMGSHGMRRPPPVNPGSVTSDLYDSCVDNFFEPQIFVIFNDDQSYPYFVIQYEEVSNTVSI

| Structure (SMILES) | IC50 [1] [nM] | F ([2]; oral administration, 5 mg/kg) [%] | AUC ([2]; intravenous injection, 1 mg/kg) [ng·h/mL] | clearance ([2]; intravenous injection, 1 mg/kg) [mL/min/kg] | half-life ([2]; intravenous injection, 1 mg/kg) [h] | Vd ([2]; intravenous injection, 1 mg/kg) [L/kg] | AUC ([2]; oral administration, 5 mg/kg) [ng·h/mL] | Cmax ([2]; oral administration, 5 mg/kg) [ng/mL] | F ([3]; oral administration, 5 mg/kg) [%] | AUC ([3]; intravenous injection, 1 mg/kg) [ng·h/mL] | clearance ([3]; intravenous injection, 1 mg/kg) [mL/min/kg] | half-life ([3]; intravenous injection, 1 mg/kg) [h] | Vd ([3]; intravenous injection, 1 mg/kg) [L/kg] | AUC ([3]; oral administration, 5 mg/kg) [ng·h/mL] | Cmax ([3]; oral administration, 5 mg/kg) [ng/mL] |
| --- | --- | --- | --- | --- | --- | --- | --- | --- | --- | --- | --- | --- | --- | --- | --- |
| O=C(OCCc1c[nH]c(=O)c(C(F)(F)F)c1)N1CCN(c2ncc(C(F)(F)F)cn2)CC1 [Example 3, 2-(6-Oxo-5-(trifluoromethyl)-1,6-dihydropyridin-3-yl)ethyl 4-(5-(trifluoromethyl)pyrimidin-2-yl)piperazine-1-carboxylate] | 1.8 | 80 | 10400 | 1.5 | 6.1 | 0.6 | 42200 | 9310 | 47 | 5740 | 3.33 | 4.7 | 0.9 | 13800 | 2350 |
| C[C@@H]1CN(c2ncc(C(F)(F)F)cn2)CCN1C(=O)OCCc1c[nH]c(=O)c(C(F)(F)F)c1 [Example 109, 2-(6-Oxo-5-(trifluoromethyl)-1,6-dihydropyridin-3-yl)ethyl (R)-2-methyl-4-(5-(trifluoromethyl)pyrimidin-2-yl)piperazine-1-carboxylate] | 0.38 | 72 | 8100 | 1.67 | 6.3 | 0.6 | 29600 | 8490 | 99 | 1060 | 15 | 2.3 | 2.1 | 5380 | 1310 |
